Laboratory results as given in patent US9067983B2, “Anti-inflammatory antibodies and uses therefor” (DecImmune Therapeutics, Inc., priority 2009, dated 2015).
No end group written: not given here.

Tested on: RAG-1-/- mice
Test: human IgM-mediated myocardial injury in RAG-1-/- mice (1 h LAD occlusion, 24 h reperfusion)
Type: in vivo, mouse
Conditions: 400 μg hIgM i.v. with 200 μg N2 peptide or 150 μg F(ab')2, 15 min prior to occlusion; FIG. 4
Method: Prior to occlusion (15 min), 400 μg of pooled individual hIgM from 10 donors was injected i.v. into the mice with either saline or 200 μg of N2 peptide. Myocardial sections were stained with Evans blue and TTC. Myocardial infarct size is expressed as a percentage infarct of the area at risk (AAR) of the left ventricle. (B and C) RAG-1−/− mice were treated as in (A) and analyzed for hIgM deposition (B) or serum troponin-I levels (C). (D) RAG-1−/− mice were subjected to 1 h LAD occlusion and 24 h reperfusion. Prior to occlusion (15 min), 400 μg hIgM was injected i.v. into the mice with either saline or 150 μg of anti-N2 F(ab′)2 antibody (21G6) and myocardial sections were analyzed as in (A). (E) RAG-1−/− mice were treated as in (D) and analyzed for hIgM deposition. In all panels, statistical significance was evaluated by Student's t test.

Ac-LMKNMDPLNDNV (listed as Mus sp.) [N2 peptide, self-peptide, amino acids 592-603 of Mouse NMHC-IIB]
human IgM-mediated injury (infarct size, hIgM deposition, serum troponin-I): block human IgM-mediated injury
